We go through one molecule from publication PMC5218480 (PLoS ONE, 2017).

Each structure is given as a SMILES string.

This assay deals with MV-4-11 cells. Description: Gene expression microarray analysis (Affymetrix PrimeView) and GSEA. The following applies: MV-4-11 cells, 48 hours. Details: RFU PODN (11730768_x_at) / Fold change /veh PODN (11730768_x_at) / RFU LINC00158 (11744669_a_at) / Fold change /veh LINC00158 (11744669_a_at) / RFU DUSP10 (11751237_a_at) / Fold change /veh DUSP10 (11751237_a_at) / RFU ID3 (11757404_x_at) / Fold change /veh ID3 (11757404_x_at) / RFU PLEKHG5 (11737974_s_at) / Fold change /veh PLEKHG5 (11737974_s_at) / RFU LRRC4B (11730491_at) / Fold change /veh LRRC4B (11730491_at) / RFU GIMAP4 (11747438_a_at) / Fold change /veh GIMAP4 (11747438_a_at) / RFU KRT8 (11758183_x_at) / Fold change /veh KRT8 (11758183_x_at) / RFU CNN1 (11734310_a_at) / Fold change /veh CNN1 (11734310_a_at) / RFU VPS37D (11726825_at) / Fold change /veh VPS37D (11726825_at) / RFU C10orf10 (11716522_x_at) / Fold change /veh C10orf10 (11716522_x_at) / RFU KIR2DL2 /// KIR2DL4 /// KIR2DL5A /// KIR2DL5B /// KIR2DS1 /// KIR2DS2 /// KIR2DS3 /// KIR2DS4 /// KIR3DL3 /// KIR3DL3 /// KIR3DS1 (11738374_at) / Fold change /veh KIR2DL2 /// KIR2DL4 /// KIR2DL5A /// KIR2DL5B /// KIR2DS1 /// KIR2DS2 /// KIR2DS3 /// KIR2DS4 /// KIR3DL3 /// KIR3DL3 /// KIR3DS1 (11738374_at) / RFU C1QL1 (11718748_at) / Fold change /veh C1QL1 (11718748_at) / RFU TMPRSS4 (11747572_a_at) / Fold change /veh TMPRSS4 (11747572_a_at) / RFU HAMP (11756126_x_at) / Fold change /veh HAMP (11756126_x_at) / RFU RNFT2 (11725882_a_at) / Fold change /veh RNFT2 (11725882_a_at) / RFU NR4A2 (11747474_a_at) / Fold change /veh NR4A2 (11747474_a_at) / RFU ABCC12 (11746883_a_at) / Fold change /veh ABCC12 (11746883_a_at) / RFU TMEM136 (11760407_x_at) / Fold change /veh TMEM136 (11760407_x_at) / RFU CLDN22 /// WWC2 (11732394_at) / Fold change /veh CLDN22 /// WWC2 (11732394_at) / RFU HLA-DPB1 (11760878_x_at) / Fold change /veh HLA-DPB1 (11760878_x_at) / RFU SPINT1 (11716480_a_at) / Fold change /veh SPINT1 (11716480_a_at) / RFU GAP43 (11754022_s_at) / Fold change /veh GAP43 (11754022_s_at) / RFU A4GNT (11735810_at) / Fold change /veh A4GNT (11735810_at) / RFU PRB3 (11715151_x_at) / Fold change /veh PRB3 (11715151_x_at) / RFU TUBB4B (11761932_at) / Fold change /veh TUBB4B (11761932_at) / RFU CAPN14 (11732068_a_at) / Fold change /veh CAPN14 (11732068_a_at) / RFU TMCC2 (11721928_a_at) / Fold change /veh TMCC2 (11721928_a_at) / RFU IRGQ (11745062_a_at) / Fold change /veh IRGQ (11745062_a_at) / RFU FAM174B (11720279_a_at) / Fold change /veh FAM174B (11720279_a_at) / RFU TMPRSS4 (11748680_a_at) / Fold change /veh TMPRSS4 (11748680_a_at) / RFU FAM212B (11763350_a_at) / Fold change /veh FAM212B (11763350_a_at) / RFU PLEKHG5 (11743358_a_at) / Fold change /veh PLEKHG5 (11743358_a_at) / RFU ZSCAN30 (11745921_a_at) / Fold change /veh ZSCAN30 (11745921_a_at) / RFU CMKLR1 (11741424_a_at) / Fold change /veh CMKLR1 (11741424_a_at) / RFU LOC101060620 /// MAPK8IP1 (11723275_at) / Fold change /veh LOC101060620 /// MAPK8IP1 (11723275_at) / RFU SPTSSB (11747773_x_at) / Fold change /veh SPTSSB (11747773_x_at) / RFU PRSS12 (11739890_at) / Fold change /veh PRSS12 (11739890_at) / RFU BIN1 (11741810_x_at) / Fold change /veh BIN1 (11741810_x_at) / RFU WNT11 (11732464_a_at) / Fold change /veh WNT11 (11732464_a_at) / RFU C10orf10 (11716521_a_at) / Fold change /veh C10orf10 (11716521_a_at) / RFU C5orf56 (11738089_at) / Fold change /veh C5orf56 (11738089_at) / RFU CYB561 (11721691_x_at) / Fold change /veh CYB561 (11721691_x_at) / RFU ANKRD19P (11752326_a_at) / Fold change /veh ANKRD19P (11752326_a_at) / RFU OR2T12 /// OR2T33 /// OR2T8 (11738714_s_at) / Fold change /veh OR2T12 /// OR2T33 /// OR2T8 (11738714_s_at) / RFU VCAN (11748164_a_at) / Fold change /veh VCAN (11748164_a_at) / RFU JSRP1 (11732532_at) / Fold change /veh JSRP1 (11732532_at) / RFU KRTAP10-11 (11738290_x_at) / Fold change /veh KRTAP10-11 (11738290_x_at) / RFU MYO3A (11730013_a_at) / Fold change /veh MYO3A (11730013_a_at) / RFU EBF3 (11725865_a_at) / Fold change /veh EBF3 (11725865_a_at) / RFU CAMK2N1 (11719241_x_at) / Fold change /veh CAMK2N1 (11719241_x_at) / RFU C5orf56 (11738088_a_at) / Fold change /veh C5orf56 (11738088_a_at) / RFU OLFML3 (11715873_a_at) / Fold change /veh OLFML3 (11715873_a_at) / RFU LOC100653217 /// NTM (11731650_a_at) / Fold change /veh LOC100653217 /// NTM (11731650_a_at) / RFU MAPK11 (11762145_a_at) / Fold change /veh MAPK11 (11762145_a_at) / RFU FIZ1 (11724087_x_at) / Fold change /veh FIZ1 (11724087_x_at) / RFU OASL (11726364_x_at) / Fold change /veh OASL (11726364_x_at) / RFU SOX15 (11748057_x_at) / Fold change /veh SOX15 (11748057_x_at) / RFU CD79A (11719716_a_at) / Fold change /veh CD79A (11719716_a_at) / RFU HIST1H1D (11736915_at) / Fold change /veh HIST1H1D (11736915_at) / RFU CASKIN2 (11723855_a_at) / Fold change /veh CASKIN2 (11723855_a_at) / RFU LOC730098 (11760151_x_at) / Fold change /veh LOC730098 (11760151_x_at) / RFU OR4N2 (11742367_at) / Fold change /veh OR4N2 (11742367_at) / RFU PRRT2 (11749266_a_at) / Fold change /veh PRRT2 (11749266_a_at) / RFU SNX32 (11753110_a_at) / Fold change /veh SNX32 (11753110_a_at) / RFU CDHR5 (11726645_a_at) / Fold change /veh CDHR5 (11726645_a_at) / RFU RCAN1 (11760418_a_at) / Fold change /veh RCAN1 (11760418_a_at) / RFU FAM167A (11723789_a_at) / Fold change /veh FAM167A (11723789_a_at) / RFU FAM26E (11764081_at) / Fold change /veh FAM26E (11764081_at) / RFU ISYNA1 (11749810_s_at) / Fold change /veh ISYNA1 (11749810_s_at) / RFU ACY1 (11761880_at) / Fold change /veh ACY1 (11761880_at) / RFU 11764098_at / Fold change /veh 11764098_at / RFU SAMD14 (11745864_x_at) / Fold change /veh SAMD14 (11745864_x_at) / RFU NPB (11741838_a_at) / Fold change /veh NPB (11741838_a_at) / RFU TMPRSS6 (11731388_a_at) / Fold change /veh TMPRSS6 (11731388_a_at) / RFU KRTAP10-2 (11738614_at) / Fold change /veh KRTAP10-2 (11738614_at) / RFU ARHGAP8 /// PRR5-ARHGAP8 (11727945_x_at) / Fold change /veh ARHGAP8 /// PRR5-ARHGAP8 (11727945_x_at) / RFU KRTAP5-7 /// NADSYN1 (11734609_at) / Fold change /veh KRTAP5-7 /// NADSYN1 (11734609_at) / RFU RASL12 (11751679_a_at) / Fold change /veh RASL12 (11751679_a_at) / RFU CDKN2B (11736163_a_at) / Fold change /veh CDKN2B (11736163_a_at) / RFU PRF1 (11729649_at) / Fold change /veh PRF1 (11729649_at) / RFU, ZNF638 /// ZNF638-IT1 / Fold change vs veh, ZNF638 /// ZNF638-IT1 / RFU, PANK3 / Fold change vs veh, PANK3 / RFU, SH3YL1 / Fold change vs veh, SH3YL1 / RFU, ZEB2 / Fold change vs veh, ZEB2 / RFU, NRIP1 / Fold change vs veh, NRIP1 / RFU, PTTG1IP / Fold change vs veh, PTTG1IP / RFU, CAPN2 / Fold change vs veh, CAPN2 / RFU, MED14 / Fold change vs veh, MED14 / RFU, SNORA58 / Fold change vs veh, SNORA58 / RFU, C1orf63 / Fold change vs veh, C1orf63 / RFU, LRRFIP1 / Fold change vs veh, LRRFIP1 / RFU, NDUFAF7 / Fold change vs veh, NDUFAF7 / RFU, SLC12A2 / Fold change vs veh, SLC12A2 / RFU, IBTK / Fold change vs veh, IBTK / RFU, ESF1 / Fold change vs veh, ESF1 / Fold change vs veh, TMEM50B / RFU, TAOK1 / Fold change vs veh, TAOK1 / RFU, ACBD3 / Fold change vs veh, ACBD3 / RFU, TMA16 / Fold change vs veh, TMA16 / RFU, RWDD3 / Fold change vs veh, RWDD3 / RFU, BCAT1 / Fold change vs veh, BCAT1 / RFU, EDEM3 / Fold change vs veh, EDEM3 / RFU, TMEM33 / Fold change vs veh, TMEM33 / RFU, WDR75 / Fold change vs veh, WDR75 / RFU, AHCTF1 / Fold change vs veh, AHCTF1 / RFU, TFRC / Fold change vs veh, TFRC / RFU, ZDHHC17 / Fold change vs veh, ZDHHC17 / RFU, NOM1 / Fold change vs veh, NOM1 / RFU, ARL8B / Fold change vs veh, ARL8B / RFU, ZBTB11 / Fold change vs veh, ZBTB11 / RFU, TAMM41 / Fold change vs veh, TAMM41 / RFU, KIAA1704 /// LOC100996395 / Fold change vs veh, KIAA1704 /// LOC100996395 / RFU, ING1 / Fold change vs veh, ING1 / RFU, TRMT61B / Fold change vs veh, TRMT61B / RFU, FUBP3 / Fold change vs veh, FUBP3 / RFU, TP53 / Fold change vs veh, TP53 / RFU, TNKS2 / Fold change vs veh, TNKS2 / RFU, ZFP14 / Fold change vs veh, ZFP14 / RFU, ACTR2 / Fold change vs veh, ACTR2 / RFU, PPP3R1 / Fold change vs veh, PPP3R1 / RFU, PIK3R1 / Fold change vs veh, PIK3R1 / RFU, HNRNPA1 / Fold change vs veh, HNRNPA1 / RFU, RNF170 / Fold change vs veh, RNF170 / RFU, ZNF28 / Fold change vs veh, ZNF28 / RFU, RNGTT / Fold change vs veh, RNGTT / RFU, OGT / Fold change vs veh, OGT / RFU, BRD1 / Fold change vs veh, BRD1 / RFU, MARS / Fold change vs veh, MARS / RFU, ZNF655 / Fold change vs veh, ZNF655 / RFU, FAHD1 / Fold change vs veh, FAHD1 / RFU, BDP1 / Fold change vs veh, BDP1 / RFU, LRRCC1 / Fold change vs veh, LRRCC1 / RFU, ARID1A / Fold change vs veh, ARID1A / RFU, ZNF146 / Fold change vs veh, ZNF146 / RFU, ZNF330 / Fold change vs veh, ZNF330 / RFU, GPN3 / Fold change vs veh, GPN3 / RFU, C9orf123 / Fold change vs veh, C9orf123 / RFU, N4BP2L2 / Fold change vs veh, N4BP2L2 / RFU, ARFIP1 / Fold change vs veh, ARFIP1 / RFU, FAM179B / Fold change vs veh, FAM179B / RFU, BCL10 / Fold change vs veh, BCL10 / RFU, UHRF1BP1L / Fold change vs veh, UHRF1BP1L / RFU, BET1 / Fold change vs veh, BET1 / RFU, CNOT2 / Fold change vs veh, CNOT2 / RFU, ZNF268 / Fold change vs veh, ZNF268 / Fold change vs veh, ZNF507 / RFU, DGCR2 / Fold change vs veh, DGCR2 / RFU, WDSUB1 / Fold change vs veh, WDSUB1 / Fold change vs veh, HSP90B1 /// MIR3652 / RFU, ADSS / Fold change vs veh, ADSS / RFU, GK / Fold change vs veh, GK / RFU, ZNF148 / Fold change vs veh, ZNF148 / RFU, TAF9 / Fold change vs veh, TAF9 / RFU, SLC1A5 / Fold change vs veh, SLC1A5 / RFU, SLMO2 / Fold change vs veh, SLMO2 / RFU, ABCC4 / Fold change vs veh, ABCC4 / RFU, LOC101060439 /// RAP1B / Fold change vs veh, LOC101060439 /// RAP1B / RFU, RFX7 / Fold change vs veh, RFX7 / RFU, GTPBP10 / Fold change vs veh, GTPBP10 / RFU, CNEP1R1 / Fold change vs veh, CNEP1R1 / RFU, BIVM-ERCC5 /// ERCC5 / Fold change vs veh, BIVM-ERCC5 /// ERCC5 / RFU, ILF3 / Fold change vs veh, ILF3 / RFU 11762660_at / Fold change /veh 11762660_at / RFU VCAN (11757783_s_at) / Fold change /veh VCAN (11757783_s_at) / RFU DDX43 (11728927_at) / Fold change /veh DDX43 (11728927_at) / RFU KRT8 (11758188_x_at) / Fold change /veh KRT8 (11758188_x_at) / RFU NKD1 (11759106_at) / Fold change /veh NKD1 (11759106_at) / RFU SRD5A1 (11742802_a_at) / Fold change /veh SRD5A1 (11742802_a_at) / RFU TPSAB1 /// TPSB2 (11721975_s_at) / Fold change /veh TPSAB1 /// TPSB2 (11721975_s_at) / RFU GSTM3 (11746129_a_at) / Fold change /veh GSTM3 (11746129_a_at) / RFU IL23R (11737362_x_at) / Fold change /veh IL23R (11737362_x_at) / RFU TMEM51 (11727254_a_at) / Fold change /veh TMEM51 (11727254_a_at) / RFU PIWIL2 (11732686_x_at) / Fold change /veh PIWIL2 (11732686_x_at) / RFU ORM1 (11744905_x_at) / Fold change /veh ORM1 (11744905_x_at) / RFU CCDC152 (11743942_at) / Fold change /veh CCDC152 (11743942_at) / RFU ECM1 (11717891_a_at) / Fold change /veh ECM1 (11717891_a_at) / RFU IL23R (11748794_a_at) / Fold change /veh IL23R (11748794_a_at) / RFU TNFAIP8L3 (11732012_x_at) / Fold change /veh TNFAIP8L3 (11732012_x_at) / RFU MBOAT4 (11741988_at) / Fold change /veh MBOAT4 (11741988_at) / RFU 11764193_at / Fold change /veh 11764193_at / RFU TMEM53 (11763286_at) / Fold change /veh TMEM53 (11763286_at) / RFU MAGEB2 (11727129_at) / Fold change /veh MAGEB2 (11727129_at) / RFU TMEM200A (11744735_a_at) / Fold change /veh TMEM200A (11744735_a_at) / RFU CCDC152 (11751479_a_at) / Fold change /veh CCDC152 (11751479_a_at) / RFU FAM211A (11726209_a_at) / Fold change /veh FAM211A (11726209_a_at) / RFU RGS16 (11746705_a_at) / Fold change /veh RGS16 (11746705_a_at) / RFU VCAN (11755009_s_at) / Fold change /veh VCAN (11755009_s_at) / RFU RHOB (11743442_s_at) / Fold change /veh RHOB (11743442_s_at) / RFU RGS16 (11720943_a_at) / Fold change /veh RGS16 (11720943_a_at) / RFU RGS16 (11720944_at) / Fold change /veh RGS16 (11720944_at) / RFU, VPS4B / Fold change vs veh, VPS4B / RFU, CREB1 / Fold change vs veh, CREB1 / RFU, DNAJC13 / Fold change vs veh, DNAJC13 / RFU, GNAQ / Fold change vs veh, GNAQ / RFU, CDK5R1 / Fold change vs veh, CDK5R1 / RFU, ZRANB3 / Fold change vs veh, ZRANB3 / RFU, CUL4A / Fold change vs veh, CUL4A / RFU, CCNY / Fold change vs veh, CCNY / RFU, UFL1 / Fold change vs veh, UFL1 / RFU, COG3 / Fold change vs veh, COG3 / RFU, DIAPH2 / Fold change vs veh, DIAPH2 / RFU, SKA2 / Fold change vs veh, SKA2 / RFU, AFF3 / Fold change vs veh, AFF3 / RFU, LMF1 / Fold change vs veh, LMF1 / RFU, IPO11 / Fold change vs veh, IPO11 / RFU, DFFB / Fold change vs veh, DFFB / RFU, FOXP1 / Fold change vs veh, FOXP1 / RFU, CARD8 / Fold change vs veh, CARD8 / RFU, STRN3 / Fold change vs veh, STRN3 / RFU, ADK / Fold change vs veh, ADK / RFU, RASSF2 / Fold change vs veh, RASSF2 / RFU, WIPF1 / Fold change vs veh, WIPF1 / RFU, LARP1B / Fold change vs veh, LARP1B / RFU, RASA1 / Fold change vs veh, RASA1 / RFU, RB1 / Fold change vs veh, RB1 / RFU, PPFIA1 / Fold change vs veh, PPFIA1 / RFU, MAT2A / Fold change vs veh, MAT2A / RFU, CCT5 / Fold change vs veh, CCT5 / RFU, WDR92 / Fold change vs veh, WDR92 / RFU, CUX1 / Fold change vs veh, CUX1 / RFU, TTC7A / Fold change vs veh, TTC7A / RFU, TMEM135 / Fold change vs veh, TMEM135 / RFU, DEPTOR / Fold change vs veh, DEPTOR / RFU, CPM / Fold change vs veh, CPM / RFU, DNAJB6 / Fold change vs veh, DNAJB6 / RFU, CACNA2D3 / Fold change vs veh, CACNA2D3 / RFU, DTX4 / Fold change vs veh, DTX4 / RFU, TFCP2 / Fold change vs veh, TFCP2 / RFU, GMCL1 /// GMCL1P1 / Fold change vs veh, GMCL1 /// GMCL1P1 / RFU, AEBP2 / Fold change vs veh, AEBP2 / RFU, SNHG1 /// SNORD22 /// SNORD25 /// SNORD26 /// SNORD27 /// SNORD28 /// SNORD29 /// SNORD31 / Fold change vs veh, SNHG1 /// SNORD22 /// SNORD25 /// SNORD26 /// SNORD27 /// SNORD28 /// SNORD29 /// SNORD31 / Fold change (Aza/veh), C12orf56 (ProbeSet 11735607_a_at) / Fold change (ACY-1035/veh), C12orf56 (ProbeSet 11735607_a_at) / Fold change (Aza/veh), FGFR1OP (ProbeSet 11751329_s_at) / Fold change (ACY-1035/veh), FGFR1OP (ProbeSet 11751329_s_at) / Fold change (Aza/veh), VPS36 (ProbeSet 11739960_a_at) / Fold change (ACY-1035/veh), VPS36 (ProbeSet 11739960_a_at) / RFU SYPL1 (11715823_x_at) / Fold change /veh SYPL1 (11715823_x_at) / RFU IGFBP7 (11715501_s_at) / Fold change /veh IGFBP7 (11715501_s_at) / RFU REEP3 (11722064_at) / Fold change /veh REEP3 (11722064_at) / RFU IGLL1 (11728026_x_at) / Fold change /veh IGLL1 (11728026_x_at): dose or concentration left out as unconfirmed. Format: cell-based, human.

Turning to `Nc1ncn([C@@H]2O[C@H](CO)[C@@H](O)[C@H]2O)c(=O)n1` [azacitidine], the “RFU ARHGAP8 /// PRR5-ARHGAP8 (11727945_x_at)” value stood at 97.01 RFU.
